According to patent publication US5565330A, “Method for removing N-terminal dipeptides from precursor polypeptides with dipeptidylaminopeptidase from Dictyostelium discoideum” (Eli Lilly and Company, priority 1995, dated 1996):

How the values were obtained:
[1] = Cleavage of blocked Benzyloxycarbonyl-RR-BNA (fluorescence); assay type: biochemical; settings: 0.25 mM Z-RR-BNA, pH 3.5 or pH 5.0
Protocol: (§1) About 0.25 mM RR-BNA or 0.25 mM Benzyloxycarbonyl-RR-BNA (Z-RR-BNA) was prepared in either 100 mM acetic acid, pH 3.5, or 100 mM citrate buffer, pH 5.0. To 2 ml of substrate was added dDAP or bovine DAP-I (about 15 milliunit/ml solution). Rates of cleavage (monitoring fluorescence increase at 410 nm with excitation at 340 nm) were monitored. […] The pH optimum for cleavage of RR-BNA was probed by monitoring the rate of RR-BNA cleavage using a buffer system consisting of 50 mM acetic acid and 50 mM citrate. Various pHs were achieved using HCl or NaOH and 1.5 ml volumes were made 2.0 with 0.5 ml of a 1 mM stock solution of RR-BNA (final concentration of about 0.25 mM). dDAP was added (to about 15 mU/ml) and the rates of cleavage were determined.

[2] = Cleavage of Arg-Arg-β-naphthylamide (fluorescence); assay type: biochemical; settings: 0.25 mM RR-BNA, pH 3.5 or pH 5.0, about 15 milliunit/ml enzyme
Protocol: as §1

Met(O)-Arg-hPI = assay: Conversion of oxidized methionyl Met(O)-Arg-hPI (HPLC); assay type: biochemical, human; settings: X is Arg, Phe and Tyr
Protocol: Met-Arg-Human Proinsulin (Met-Arg-hPI) was produced as an insoluble protein in the cytoplasm of E. coli. The insoluble protein was solubilized in 7M urea. The protein was purified by ion exchange chromatography. The Met-Arg-hPI was sulfitolyzed, solvent exchanged and folded in order to form the native disulfide bond pairs and native tertiary structure. The material was further purified using reverse phase chromatography.
The Met-Arg-hPI was about 24 mg/ml (in approximately 20 mM glycine buffer, pH 3.5). About 2.4 mg of this material was incubated with 0.19 milliunits of dDAP at pH 3.5. The reaction was allowed to proceed at room temperature. Periodically, aliquots were removed and diluted with 10% phosphoric acid. This material was injected onto a neutral reverse phase HPLC system to monitor for the disappearance of Met-Arg-hPI or Met(O)-Arg-hPI and the subsequent production of hPI. In addition, aliquots were diluted into an appropriate diluent to allow for HPLC monitoring of appearance of either the Met-Arg or Met(O)-Arg dipeptides. Approximately 60% of the Met-Arg-hPI was converted to hPI in 8 hours. […] The rate of cleavage of both substrates was similar. […] The ability of dDAP to cleave the oxidized Met(O)-X substrate has distinct processing advantages over enzymes unable to perform this cleavage.

dDAP = assay: Inhibition of GFpNA cleavage by sulfhydryl modifying agents; assay type: biochemical, Dictyostelium discoideum; settings: 0.5, 5.0 or 50 mM inhibitor, 15 minutes at room temperature, pH 7; then 4 mM GFpNA, pH 3.5
Protocol: (§2) dDAP activity is normally monitored by following the cleavage of the chromogenic substrate Gly-Phe para-nitroanilide (GF-pNA). Typically the assay is performed by diluting the enzyme 11 fold into 1.0 ml of 4 mM GFpNA adjusted to pH 3.5. The rate of cleavage of GF dipeptide was monitored at 37° C. by measuring the increase in absorbance at 405 nm. One unit of activity leads to a 0.90 OD change per minute under these conditions. Unit/ml estimates can be made assuming an extinction coefficient for free pNA of 9.9 mM-1 cm-1 at 405 nm.
(§3) The inhibition profile of dDAP toward the substrate GFpNA was compared to that of bovine DAP-I using iodoacetamide and potassium tetrathionate, sulfhydryl modifying agents known to inhibit the activity of DAP-I. Samples of dDAP or bovine spleen DAP-I were incubated for 15 minutes at room temperature in final concentrations of 0, 0.5, 5.0 or 50 mM of either inhibitor at pH 7 in 100 mM Tris buffer. The incubated solutions were then diluted 21-fold with 4 mM GFpNA, pH 3.5. The rate of cleavage was monitored by measuring the increase in absorbance at 405 nm at 37 degrees centigrade. Bovine DAP-I's rate of cleavage of GFpNA was decreased more than 90% by the exposure to 5 mM iodoacetamide and was 95% inhibited by 5 mM potassium tetrathionate.

bovine spleen DAP-I = target: T1, bovine spleen DAP-I (Bos taurus, UniProt Q3ZCJ8); assay: as above; assay type: biochemical; settings: 5 mM inhibitor, 15 minutes at room temperature, pH 7; then 4 mM GFpNA, pH 3.5, 37 degrees; read-out: decrease (inhibition) of bovine DAP-I's rate of cleavage of GFpNA
T1 construct: bovine spleen DAP-I; from tissue; host or cells: bovine spleen
T1 sequence (Q3ZCJ8 231-394 limits assumed): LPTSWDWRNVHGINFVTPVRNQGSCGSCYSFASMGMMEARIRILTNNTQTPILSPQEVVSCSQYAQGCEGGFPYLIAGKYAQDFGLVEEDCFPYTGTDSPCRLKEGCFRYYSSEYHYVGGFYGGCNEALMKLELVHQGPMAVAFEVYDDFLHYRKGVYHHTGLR
T1 sequence (Q3ZCJ8 395-463 limits assumed): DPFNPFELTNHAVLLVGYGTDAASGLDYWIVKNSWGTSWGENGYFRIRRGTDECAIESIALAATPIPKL
T1 sequence (Q3ZCJ8 25-143 limits assumed): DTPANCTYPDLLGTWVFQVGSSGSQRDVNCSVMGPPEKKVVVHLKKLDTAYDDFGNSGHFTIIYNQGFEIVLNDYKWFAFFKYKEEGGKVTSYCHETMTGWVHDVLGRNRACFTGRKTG
Protocol: as §2, §3

bovine DAP-I: bovine spleen dipeptidylaminopeptidase I, comparison enzyme
cleavage of blocked amino group Z-RR-BNA [1]: unable to cleave | cleavage of RR-BNA [2]: unable to cleave | cleavage of Met(O)-X-derivatives of hPI (Met(O)-Arg-hPI): unable to cleave

O=S(=O)([O-])SSS(=O)(=O)[O-].[K+].[K+] [potassium tetrathionate]
inhibition of dDAP cleavage of GFpNA (dDAP): no evidence of significant inhibition | inhibition at 5000 µM (bovine spleen DAP-I): 95%

NC(=O)CI [iodoacetamide]
inhibition of dDAP cleavage of GFpNA (dDAP): no evidence of significant inhibition | inhibition at 5000 µM (bovine spleen DAP-I): > 90%
